# Assay results from patent US20170165295A1, “COMPOSITION FOR PREVENTING, ALLEVIATING OR TREATING CONSTIPATION, CONTAINING HIGH HARDNESS MINERAL WATER PREPARED FROM DEEP OCEAN WATER OR DESALINATED GROUNDWATER” (ARIBIO INC., priority 2012, published 2017).
# Structures can show the parent of a compound that is named as a salt. Marks after values point to notes of the source that are not given here.
# What was measured:
# [1] = system: loperamide-induced constipated rats; test: Fecal parameters in loperamide-induced constipated rats; assay type: in vivo; conditions: for Fecal dry-weights / Fecal wet-weights / Numbers of fecal pellets / Water contents of fecal pellets: collected at 4th administration day (24 hrs), mean ± S.D. of nine rats
# Method: (§1) 6-week-old rats (SLC, Japan) were used for an experiment after acclimatization to new environments for 7 days. Five rats were raised per cage at 20-25° C. and 45-50% humidity. The light-dark cycle was 12 hr: 12 hr, and water and food were freely available. The rats were classified into six groups (nine rats per group, a total of 54 rats) based on the body weight thereof. Specific groups are as follows:
# (§2) Administration of Test Material Magnesium hydroxide (Mg(OH)2; MagMill™) was purchased from Samnam Pharm. In order to protect test materials from light and moisture, the test materials were stored in a refrigerator at 4° C. The mineral water was orally administered at 10 ml/kg for each time, at an interval of 6 hours (30 ml/kg/day), three times a day, for a total of six days. The administration for each time was conducted 1 hour after administration of loperamide 3 mg/kg. Magnesium hydroxide was mixed with distilled water, and the mixture was orally administered once a day for a total of six days, and the same amount of distilled water was orally administered at the time of second and third administrations. Distilled water, instead of mineral water, was administered to groups 1 and 2.
# (§3) In order to induce constipation, loperamide hydrochloride (Sigma, MO, U.S.) 3 mg/kg was mixed with saline water 5 ml/kg, and the mixture was orally administered to animals 1 hour before administration of the test material, once a day, for a total of six days. Detailed methods are disclosed in Bustos et al. Acta Gastroenterol Latinoam, 1991; 21:3-9 and Wintola et al. BMC Gastroenterol, 2010; 10:95, which are incorporated by reference into the present specification.
# The fecal pellets of each rat were collected 24 hours after the 4th administration day. The total number, wet weight, and water content of the fecal pellets were checked. The water content was calculated by equation 2 below:
# Water content of fecal pellets (%)=((wet weight of fecal pellets−dry weight of fecal pellets)/wet weight of fecal pellets)×100 [Equation 2]
# (§4) Multiple comparison tests of the groups with different dosages were conducted. Variance homogeneity was examined using the Levene test (Levene A, Clin Otalary, 1981; 6:145-51). […] In cases where significant deviations from variance homogeneity were observed by the Levene test, the non-parametric comparison test and Kruskal-Wallis H test were conducted. When a significant difference was observed by the Kruskal-Wallis H test, the Mann-Whitney U (MW) test was used to determine the significance of specific pairwise comparisons. Statistical analyses were conducted using SPSS (Release 14K, SPSS Inc. USA; Ludbrook, Clin Exp Pharmacol Physiol, 1997; 24:294-6). In addition, the percentage change between the normal group and loperamide control was calculated to identify the severity of induced constipation, and then, in order to evaluate the efficacy of the test materials, the percent change compared with the loperamide control was calculated by equations 4 and 5.
# (§5) Percent change compared with normal group (%)=(((normal group data)−(loperamide control data)/normal group data)×100) [Equation 4]
# (§6) Percentage change (%) compared with loperamide control=(((loperamide control data−test material administered rat data)/(loperamide control data))×100) [Equation 5]
# [2] = system: loperamide-induced constipated rats; test: Histomorphometry of the colon and remnant fecal pellets in loperamide-induced constipated rats; assay type: in vivo; conditions: for Colon mucosa thicknesses / Fecal pellet surface mucous thickness / Mucous producing cell numbers: at sacrifice, 6 days of administration, mean ± S.D. of nine rats; for Mucous producing cell numbers: colonic mucosa
# Method: as §1, §2, §3
# Histopathological assessment of the colonic mucosa and remnant fecal pellets in the colonic lumen was conducted by the method of Wu et al. J Ethnopharmacol, 2011; 134:406-13, with minor modification. In short, the distal colon fragment containing one fecal pellet was isolated using ligatures, removed, and immediately fixed with 10% formaldehyde (when the gastrointestinal charcoal transit ratio was measured). The fixed tissue segments were paraffin-embedded, and sliced into 3 μm-thickness cross sections. The sliced samples were stained with Alcian blue at pH 2.5. Five tissue segments per group were prepared, and histological profiles thereof were interpreted. The histopathologist was blinded to the group distributions at the time of analysis.
# Histomorphometry: The mean thickness of the mucosal layers at the fecal surface (μm/fecal pellet), mucous-producing cell number (cells/mm^2) per unit area in the colonic mucosa, and the colonic mucosal thickness (μm/colon) were measured by using an automated image analyzer (DMI-300, DMI, Korea) under a light microscope.
# as §4, §5
# [3] = system: loperamide-induced constipated rats; test: Gastrointestinal charcoal transit ratio in loperamide-induced constipated rats; assay type: in vivo; conditions: for Gastrointestinal charcoal transit ratio / Length of charcoal meal transferred: during 30 min after charcoal meal, after 6th administration, mean ± S.D. of nine rats
# Method: as §1, §2, §3
# The gastrointestinal propulsion of the charcoal meal was checked by the method disclosed in Sagar et al. BMC Complement Altern Med, 2005; 5:18, with minor modification. Prior to the experiment, animals were fasted for 18 hours (water supplied). Ten minutes after the 6th administration (last) of the test material, animals of each group were fed with 1 ml of charcoal meal (3% suspension of activated charcoal in 0.5% aqueous methylcellulose). Thirty minutes after charcoal meal ingestion, the animals of each group were sacrificed, and the total small intestine length (from pyloric sphincter to appendix) and the charcoal meal transit distance were measured. The gastrointestinal charcoal transit ratio was calculated by equation 3 below:
# Charcoal transit ratio (%)=(([…])/total small intestine length)×100 [Equation 3]
# as §4, §5, §6
# [4] = Body weight change of loperamide-induced constipated rats
# Method: as §1, §2, §3
# Body weight was measured once per day 1 day before the test material administration, at the day of the initiation of administration, and 1, 2, 3, 4, and 5 days after the initiation of administration, to verify the body weight change according to administration of the test material. All the animals were fasted (excluding water) for 5 days after the initiation of administration for one overnight in order to decrease the body weight difference due to feed ingestion and measure the intestinal charcoal transit ratio. In addition, the body weight gain was calculated by equation 1.
# Body weight gain (g)=body weight at 6th administration last day−body weight at the day of the initiation of administration. [Equation 1]
# [5] = system: loperamide-induced constipated rats; test: Remnant fecal pellets in the colon of loperamide-induced constipated rats; assay type: in vivo
# Method: as §1, §2, §3
# The total number and mean thickness (short axis) of remnant fecal pellets in the colonic lumen were measured when the gastrointestinal charcoal transit ratio was measured.
# as §4, §5, §6
# [6] = percent change compared with the loperamide control
# [7] = at sacrifice after 6th administration, 18 h fasting, mean ± S.D. of nine rats
# [8] = loperamide control 3 mg/kg, percent change compared with the normal group
smiles,measurement,setting,value
"[Mg+2].[OH-].[OH-] [Mg(OH)2, Magnesium hydroxide]",Fecal dry-weights,[1],4.21 ± 0.55^a g/24 hr/rat
same,Fecal wet-weights,[1],9.18 ± 0.88^dg g/24 hr/rat
same,Numbers of fecal pellets,[1],52.33 ± 4.21^ef
same,Water contents of fecal pellets,[1],53.50 ± 9.99^c %
same,"change in number of fecal pellets for 24 hours, 4 days after administration",[1]; [6],17.94%
same,"change in water content in fecal pellets for 24 hours, 4 days after administration",[1]; [6],18.12%
same,Colon mucosa thicknesses,[2],164.16 ± 22.31^cd μm
same,Fecal pellet surface mucous thickness,[2],24.33 ± 7.82^ab μm
same,Mucous producing cell numbers,[2],313.56 ± 42.27^cd cells/mm^2
same,change in colon mucosa thickness,[2]; [6],57.27%
same,change in fecal pellet surface mucosal thickness in the colon,[2]; [6],316.22%
same,change in mucous-producing cell number per unit area in the colonic mucosa,[2]; [6],75.17%
same,Gastrointestinal charcoal transit ratio,[3],66.76 ± 3.47^ac %
same,Length of charcoal meal transferred,[3],83.33 ± 6.06^a cm
same,change in intestinal charcoal transit ratio,[3]; [6],9.10%
same,Body weights at Last (6th) administration [B],"[4]; after overnight fasting, loperamide 3 mg/kg, Mg(OH)2 200 mg/kg/day or mineral water 30 ml/kg/day oral, mean ± S.D. of nine rats",241.67 ± 10.36 g
same,Body weight gains [B − A],"[4]; last (6th) administration minus initiation of administration, mean ± S.D. of nine rats",22.44 ± 4.19 g
same,change in weight gain during the administration period,[4]; [6],8.60%
same,Body weights at Initiation of administration [A],"[4]; rats given loperamide 3 mg/kg, Mg(OH)2 200 mg/kg/day or mineral water 30 ml/kg/day oral, 6 days, mean ± S.D. of nine rats",219.22 ± 8.79 g
same,Body weights at Fifth administration,"[4]; rats given loperamide 3 mg/kg, Mg(OH)2 200 mg/kg/day or mineral water 30 ml/kg/day oral, mean ± S.D. of nine rats",260.33 ± 12.38 g
same,Remnant fecal pellets in the colon: Numbers,[5]; [7],1.89 ± 0.93^c
same,change in mean diameter of remnant fecal pellets in the colon,[5]; [6],−18.76%
same,change in number of remnant fecal pellets in the colon,[5]; [6],−51.43%
same,Remnant fecal pellets in the colon: Mean thicknesses,"[5]; short axis, at sacrifice after 6th administration, 18 h fasting, mean ± S.D. of nine rats",5.26 ± 0.38^c μm
"CN(C)C(=O)C(CCN1CCC(O)(c2ccc(Cl)cc2)CC1)(c1ccccc1)c1ccccc1 [Loperamide, loperamide hydrochloride]",Fecal dry-weights,[1],4.17 ± 0.63^a g/24 hr/rat
same,Fecal wet-weights,[1],7.65 ± 1.25^d g/24 hr/rat
same,Numbers of fecal pellets,[1],45.22 ± 4.97^d
same,Water contents of fecal pellets,[1],45.29 ± 4.06^a %
same,"change in number of fecal pellets for 24 hours, 4 days after administration",[1]; [8],−27.45%
same,"change in water content in fecal pellets for 24 hours, 4 days after administration",[1]; [8],−17.47%
same,Colon mucosa thicknesses,[2],104.38 ± 10.79^c μm
same,Fecal pellet surface mucous thickness,[2],5.84 ± 2.53^a μm
same,Mucous producing cell numbers,[2],179.00 ± 46.31^c cells/mm^2
same,change in colon mucosa thickness,[2]; [8],−70.97%
same,change in fecal pellet surface mucosal thickness in the colon,[2]; [8],−89.93%
same,change in mucous-producing cell number per unit area in the colonic mucosa,[2]; [8],−72.40%
same,Gastrointestinal charcoal transit ratio,[3],61.20 ± 5.98^a %
same,Length of charcoal meal transferred,[3],74.21 ± 6.41^a cm
same,change in intestinal charcoal transit ratio,[3]; [8],−20.05%
same,significant changes in body weight and weight gain,[4]; compared with the normal group and loperamide control,not observed
same,change in weight gain during the administration period,"[4]; loperamide control 3 mg/kg, percent change compared with normal group",−7.92%
same,Remnant fecal pellets in the colon: Numbers,[5]; [7],3.89 ± 1.05^a
same,change in mean diameter of remnant fecal pellets in the colon,[5]; [8],57.96%
same,change in number of remnant fecal pellets in the colon,[5]; [8],118.75%
